Reference: PubChem BioAssay (NCI)
Where “and” joins values, the source holds several entries; their conditions need not be identical. Identical values can stand only once.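 1) Cells in 96-well plates. 2) Compound, 48 h, 5 concentrations. 3) Linear interpolation between surrounding doses. 4) Unreached endpoint = highest concentration. GI50 is the concentration that inhibits growth by half. TGI marks complete inhibition of growth.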

Tests used:
Experiment in all cases: inhibition of tumour cell growth, NCI panel, 48 h
[1] = system: MALME-3M melanoma
[2] = system: SF-295 CNS
[3] = system: MDA-MB-231 breast
[4] = system: HOP-62 NSCLC
[5] = system: MDA-MB-435
[6] = system: A498 renal
[7] = system: SK-MEL-2 melanoma
[8] = system: PC-3 prostate
[9] = system: ACHN renal
[10] = system: MDA-N
[11] = system: SF-268 CNS
[12] = system: U251 CNS
[13] = system: 786-0 renal
[14] = system: EKVX NSCLC
[15] = system: SNB-75 CNS
[16] = system: MCF7 breast
[17] = system: IGROV1 ovarian
[18] = system: M14 melanoma
[19] = system: HCT-15 colon
[20] = system: MOLT-4 leukemia
[21] = system: RXF 393 renal
[22] = system: HCC-2998 colon
[23] = system: OVCAR-8 ovarian
[24] = system: UACC-257 melanoma
[25] = system: OVCAR-3 ovarian
[26] = system: UACC-62 melanoma
[27] = system: NCI-H226 lung
[28] = system: BT-549 breast
[29] = system: LOX IMVI melanoma
[30] = system: OVCAR-5 ovarian
[31] = system: NCI-H460 lung
[32] = system: RPMI-8226 leukemia
[33] = system: KM12 colon
[34] = system: K-562 leukemia
[35] = system: SNB-19 CNS
[36] = system: COLO 205 colon
[37] = system: SK-MEL-5 melanoma
[38] = system: SK-OV-3 ovarian
[39] = system: T-47D breast
[40] = system: A549 NSCLC
[41] = system: UO-31 renal
[42] = system: TK-10 renal
[43] = system: OVCAR-4 ovarian
[44] = system: SK-MEL-28 melanoma
[45] = system: SW-620 colon
[46] = system: DU-145 prostate
[47] = system: HOP-92 NSCLC
[48] = system: NCI/ADR-RES ovarian
[49] = system: NCI-H522 lung
[50] = system: HT29 colon

CC(=O)OC1(C)CC(C)C(=O)C(C(O)CC2CC(=O)NC(=O)C2)C1 (configuration not stated)
TGI [1]: 375 nM and 753 nM | TGI [2]: 30 nM | TGI [3]: 196 nM | TGI [4]: 68.3 nM | TGI [5]: 272 nM and 733 nM | TGI [6]: 266 nM and 86.3 nM | TGI [7]: 806 nM and 438 nM | TGI [8]: 85.2 nM | TGI [9]: 131 nM and 107 nM | TGI [10]: 204 nM and 215 nM | TGI [11]: 1420 nM | TGI [12]: 21300 nM | TGI [13]: 66.9 nM | TGI [14]: 370 nM and 631 nM | TGI [15]: 11.9 nM | TGI [16]: 81.3 nM | TGI [17]: 48.9 nM | TGI [18]: 172 nM and 42.1 nM | TGI [19]: 176 nM | TGI [20]: 316 nM | TGI [21]: 89.9 nM | TGI [22]: 40.9 nM | TGI [23]: 965 nM and 406 nM | TGI [24]: 348 nM and 145 nM | TGI [25]: 1620 nM | TGI [26]: 11.3 nM | GI50 [27]: 10.8 nM | TGI [27]: 275 nM | GI50 [28]: 14.8 nM | TGI [29]: 296 nM and 103 nM | TGI [30]: 293 nM and 2400 nM | TGI [31]: 363 nM and 224 nM | TGI [32]: 16.2 nM | TGI [33]: 164 nM and 327 nM | TGI [34]: 32.2 nM | TGI [35]: 598 nM | TGI [36]: 180 nM and 40.4 nM | TGI [37]: 147 nM and 23 nM | TGI [38]: 1440 nM | TGI [39]: 583 nM | TGI [40]: 936 nM and 3320 nM | TGI [41]: 643 nM and 389 nM | GI50 [42]: 11.7 nM | TGI [42]: 164 nM | TGI [43]: 178 nM and 27.7 nM | TGI [44]: 134 nM and 688 nM | TGI [45]: 129 nM | TGI [46]: 449 nM and 264 nM | TGI [47]: 12.1 nM | TGI [48]: 744 nM and 341 nM | TGI [49]: 146 nM | TGI [50]: 133 nM
